Data taken from patent US4916214A, “Cationic complexes of technetium-99m” (Amersham International plc., priority 1987, dated 1990).
Where two headings read alike, the source gives them in different places. Each block holds one molecule with its values, some of them ahead of it.

Legend:
[1] = rat, in vivo
Experimental: In vivo biodistribution: 0.1 ml Tc^99m prep was injected i.v. into a laterial tail vein of 6 anaesthetised rats.
At 2 minutes and 60 minutes post-injection, 3 rats were sacrificed by decapitation, bled from the neck and dissected. The following organs were removed at dissection: kidney; bladder(+ urine), lung, liver, spleen, stomach, small intestine, large intestine, brain (weighed), heart (weighed), thyroid and samples of blood (weighed) and muscle (weighed), the residual carcass and the tail (injection site). Subsequently samples were counted in an automatic twin crystal gamma counter.
(§1) Percentage biodistribution of injected material was calculated (after correction for background) for all organs using the formula: [formula]
(§2) Since only samples of muscle and blood were taken, the percentage in these tissues was calculated assuming blood and muscle to represent 5.8 and 43% of total animal weight respectively using the formula: [formula]

[2] = Animal biodistribution of 99mTc complexes in guinea pigs; type: in vivo, guinea pig;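 also: Heart, liver and kidney plus urine values are percent of the injected material, background-corrected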
Experimental: as §1, §2
Since only samples of muscle and blood were taken, the percentage in these tissues was calculated assuming blood and muscle to represent 5.8 and 43% of total animal weight respectively using the formula: [formula] where CF= 0.058 for blood

[3] = Table VIII, [TcL3 ]^+ complex of the ligand, guinea pigs, 2 min p.i.
[4] = Table VIII, [TcL3 ]^+ complex of the ligand, guinea pigs, 60 min p.i.
[5] = from Table VIII, [TcL3 ]^+, guinea pigs, 60'
[6] = guinea pig, 60 min p.i. in vivo, mean
[7] = guinea pig, 2 min p.i. in vivo, mean

Structure (SMILES): COCP(C)CCP(C)COC (stereo not shown) [Example 1, MeP(CH2 OMe)-(CH2)2 -(Me)P(CH2 OMe)]
heart uptake and retention compared with dmpe complex [1]: significantly higher heart uptake and retention at 2' and 60'
heart/liver ratio compared with dmpe complex [1]: significantly increased heart/liver ratio at 60'
liver retention compared with dmpe complex [1]: reduced liver retention at 60'
Heart ([1]; 2 min): 1.71 % injected dose
Heart/Blood Counts/Gram ratio ([1]; 2 min): 4.19
Heart/Liver Counts/Gram ratio ([1]; 2 min): 1.81
Heart/Muscle Counts/Gram ratio ([1]; 2 min): 6.61
Liver ([1]; 2 min): 12.6 % injected dose
Heart ([1]; 60 min): 1.42 % injected dose
Heart/Blood Counts/Gram ratio ([1]; 60 min): 25.7
Heart/Liver Counts/Gram ratio ([1]; 60 min): 10.8
Heart/Muscle Counts/Gram ratio ([1]; 60 min): 5.46
Liver ([1]; 60 min): 1.53 % injected dose
Heart [2, 3]: 0.98 % injected dose
Heart/Blood Counts/Gram ratio [2, 3]: 1.63
Heart/Liver Counts/Gram ratio [2, 3]: 0.82
Heart/Muscle Counts/Gram ratio [2, 3]: 8.18
Liver [2, 3]: 24.0 % injected dose
Heart [2, 4]: 0.83 % injected dose
Heart/Blood Counts/Gram ratio [2, 4]: 10.5
Heart/Liver Counts/Gram ratio [2, 4]: 0.72
Heart/Muscle Counts/Gram ratio [2, 4]: 4.29
Liver [2, 4]: 13.3 % injected dose
heart uptake and retention compared with dmpe complex ([2]; from Table VIII, [TcL3 ]^+, guinea pigs, 2' and 60'): increased heart uptake and retention at 2' and 60'
heart/blood ratio compared with dmpe complex [2, 5]: better
heart/liver ratio compared with dmpe complex [2, 5]: better
heart/muscle ratio compared with dmpe complex [2, 5]: better
liver retention compared with dmpe complex [2, 5]: much lower liver retention at 60'

Structure (SMILES): COCP(C)CCP(C)C (stereo not shown) [Example 2, Me2 P-(CH2)2 -P(Me) (CH2 OMe)]
general trend of biodistribution compared with dmpe complexes [1]: show the same general trend
Heart ([1]; 2 min): 0.96 % injected dose
Heart/Blood Counts/Gram ratio ([1]; 2 min): 9.05
Heart/Liver Counts/Gram ratio ([1]; 2 min): 0.57
Heart/Muscle Counts/Gram ratio ([1]; 2 min): 4.99
Liver ([1]; 2 min): 20.45 % injected dose
Heart ([1]; 60 min): 0.94 % injected dose
Heart/Blood Counts/Gram ratio ([1]; 60 min): 49.63
Heart/Liver Counts/Gram ratio ([1]; 60 min): 7.26
Heart/Muscle Counts/Gram ratio ([1]; 60 min): 4.17
Liver ([1]; 60 min): 1.62 % injected dose
Heart [2, 3]: 0.96 % injected dose
Heart/Blood Counts/Gram ratio [2, 3]: 1.59
Heart/Liver Counts/Gram ratio [2, 3]: 0.51
Heart/Muscle Counts/Gram ratio [2, 3]: 9.19
Liver [2, 3]: 24.85 % injected dose
Heart [2, 4]: 0.43 % injected dose
Heart/Blood Counts/Gram ratio [2, 4]: 7.82
Heart/Liver Counts/Gram ratio [2, 4]: 0.30
Heart/Muscle Counts/Gram ratio [2, 4]: 4.60
Liver [2, 4]: 26.13 % injected dose

Structure (SMILES): COC(CC(OC)P(C)C)P(C)C.COC(CC(OC)P(C)C)P(C)C.COC(CC(OC)P(C)C)P(C)C.[99Tc+] (stereo not shown) [Example 16]
Blood ([1]; 2 min): 7.15 % injected dose/organ
Heart ([1]; 2 min): 1.30 % injected dose/organ
Heart/Blood Counts/Gram ratio ([1]; 2 min): 2.78
Heart/Liver Counts/Gram ratio ([1]; 2 min): 1.14
Heart/Lung Counts/Gram ratio ([1]; 2 min): 0.5
Heart/Muscle Counts/Gram ratio ([1]; 2 min): 5.01
Kidney + Urine ([1]; 2 min): 9.33 % injected dose/organ
Liver ([1]; 2 min): 17.4 % injected dose/organ
Liver + GI ([1]; 2 min): 31.5 % injected dose/organ
Lung ([1]; 2 min): 3.57 % injected dose/organ
Muscle ([1]; 2 min): 29.1 % injected dose/organ
Blood ([1]; 60 min): 0.64 % injected dose/organ
Heart ([1]; 60 min): 0.99 % injected dose/organ
Heart/Blood Counts/Gram ratio ([1]; 60 min): 22.1
Heart/Liver Counts/Gram ratio ([1]; 60 min): 1.64
Heart/Lung Counts/Gram ratio ([1]; 60 min): 0.7
Heart/Muscle Counts/Gram ratio ([1]; 60 min): 6.4
Kidney + Urine ([1]; 60 min): 25.7 % injected dose/organ
Liver ([1]; 60 min): 8.81 % injected dose/organ
Liver + GI ([1]; 60 min): 43.3 % injected dose/organ
Lung ([1]; 60 min): 1.79 % injected dose/organ
Muscle ([1]; 60 min): 17.1 % injected dose/organ
Blood [2, 6]: 2.03 % injected dose/organ
Heart [2, 6]: 0.57 % injected dose/organ
Heart/Blood Counts/Gram ratio [2, 6]: 7.08
Heart/Liver Counts/Gram ratio [2, 6]: 0.94
Heart/Lung Counts/Gram ratio [2, 6]: 0.4
Heart/Muscle Counts/Gram ratio [2, 6]: 3.98
Kidney + Urine [2, 6]: 23.3 % injected dose/organ
Liver [2, 6]: 10.0 % injected dose/organ
Liver + GI [2, 6]: 48.6 % injected dose/organ
Lung [2, 6]: 1.01 % injected dose/organ
Muscle [2, 6]: 20.7 % injected dose/organ

Structure (SMILES): COC(CC(OC)P(C)C)P(C)C.COC(CC(OC)P(C)C)P(C)C.O=[N][99Tc+][Cl].[Cl-] (stereo not shown) [Example 17]
Blood ([1]; 60 min): 0.44 % injected dose/organ
Heart ([1]; 60 min): 1.23 % injected dose/organ
Heart/Blood Counts/Gram ratio ([1]; 60 min): 39.1
Heart/Liver Counts/Gram ratio ([1]; 60 min): 2.47
Heart/Lung Counts/Gram ratio ([1]; 60 min): 2.7
Heart/Muscle Counts/Gram ratio ([1]; 60 min): 5.51
Kidney + Urine ([1]; 60 min): 15.8 % injected dose/organ
Liver ([1]; 60 min): 6.03 % injected dose/organ
Liver + GI ([1]; 60 min): 47.9 % injected dose/organ
Lung ([1]; 60 min): 0.72 % injected dose/organ
Muscle ([1]; 60 min): 22.9 % injected dose/organ
Blood [2, 6]: 1.31 % injected dose/organ
Heart [2, 6]: 0.70 % injected dose/organ
Heart/Blood Counts/Gram ratio [2, 6]: 13.9
Heart/Liver Counts/Gram ratio [2, 6]: 4.21
Heart/Lung Counts/Gram ratio [2, 6]: 1.3
Heart/Muscle Counts/Gram ratio [2, 6]: 6.81
Kidney + Urine [2, 6]: 17.6 % injected dose/organ
Liver [2, 6]: 2.76 % injected dose/organ
Liver + GI [2, 6]: 57.1 % injected dose/organ
Lung [2, 6]: 0.55 % injected dose/organ
Muscle [2, 6]: 1.60 % injected dose/organ

Structure (SMILES): COCC(COC)(CP(C)C)CP(C)C.COCC(COC)(CP(C)C)CP(C)C.COCC(COC)(CP(C)C)CP(C)C.[99Tc+] [Example 18]
Blood ([1]; 2 min): 2.85 injected dose/organ
Heart ([1]; 2 min): 1.87 injected dose/organ
Heart/Blood Counts/Gram ratio ([1]; 2 min): 10.4
Heart/Liver Counts/Gram ratio ([1]; 2 min): 1.68
Heart/Lung Counts/Gram ratio ([1]; 2 min): 1.2
Heart/Muscle Counts/Gram ratio ([1]; 2 min): 8.45
Kidney + Urine ([1]; 2 min): 10.6 injected dose/organ
Liver ([1]; 2 min): 16.3 injected dose/organ
Liver + GI ([1]; 2 min): 36.4 injected dose/organ
Lung ([1]; 2 min): 2.59 injected dose/organ
Muscle ([1]; 2 min): 26.3 injected dose/organ
Blood ([1]; 60 min): 0.14 injected dose/organ
Heart ([1]; 60 min): 1.41 injected dose/organ
Heart/Blood Counts/Gram ratio ([1]; 60 min): 152
Heart/Liver Counts/Gram ratio ([1]; 60 min): 8.42
Heart/Lung Counts/Gram ratio ([1]; 60 min): 3.2
Heart/Muscle Counts/Gram ratio ([1]; 60 min): 8.36
Kidney + Urine ([1]; 60 min): 12.2 injected dose/organ
Liver ([1]; 60 min): 2.45 injected dose/organ
Liver + GI ([1]; 60 min): 49.92 injected dose/organ
Lung ([1]; 60 min): 0.75 injected dose/organ
Muscle ([1]; 60 min): 19.4 injected dose/organ
Blood [2, 7]: 5.14 % injected dose/organ
Heart [2, 7]: 1.2 % injected dose/organ
Heart/Blood Counts/Gram ratio [2, 7]: 5.7
Heart/Liver Counts/Gram ratio [2, 7]: 1.12
Heart/Lung Counts/Gram ratio [2, 7]: 0.6
Heart/Muscle Counts/Gram ratio [2, 7]: 6.5
Kidney + Urine [2, 7]: 14.5 % injected dose/organ
Liver [2, 7]: 17.3 % injected dose/organ
Liver + GI [2, 7]: 36.9 % injected dose/organ
Lung [2, 7]: 1.65 % injected dose/organ
Muscle [2, 7]: 27.4 % injected dose/organ
Blood [2, 6]: 0.46 % injected dose/organ
Heart [2, 6]: 1.06 % injected dose/organ
Heart/Blood Counts/Gram ratio [2, 6]: 56.1
Heart/Liver Counts/Gram ratio [2, 6]: 5.63
Heart/Lung Counts/Gram ratio [2, 6]: 1.9
Heart/Muscle Counts/Gram ratio [2, 6]: 6.14
Kidney + Urine [2, 6]: 15.0 % injected dose/organ
Liver [2, 6]: 2.6 % injected dose/organ
Liver + GI [2, 6]: 53.3 % injected dose/organ
Lung [2, 6]: 0.56 % injected dose/organ
Muscle [2, 6]: 23.7 % injected dose/organ

Structure (SMILES): COC(CC(OC)P(C)C)P(C)C (stereo not shown) [PL30]
HEART/BLOOD ([1]; 2 min): 2.78
HEART/LIVER ([1]; 2 min): 5.01
Heart ([1]; 2 min): 1.30

Structure (SMILES): CCOCCOCCOC(CP(C)C)CP(C)C [PL41]
HEART/BLOOD ([1]; 2 min): 7.83
HEART/LIVER ([1]; 2 min): 0.83
Heart ([1]; 2 min): 1.08
HEART/BLOOD ([1]; 60 min): 122
HEART/LIVER ([1]; 60 min): 4.65
Heart ([1]; 60 min): 1.02

Now from value to molecule:

HEART/BLOOD ([1]; 2 min): 4.07
HEART/LIVER ([1]; 2 min): 0.46
Heart ([1]; 2 min): 0.88
HEART/BLOOD ([1]; 60 min): 35.3
HEART/LIVER ([1]; 60 min): 1.65
Heart ([1]; 60 min): 0.55
Structure (SMILES): CP(C)CC1(CP(C)C)COC(C)(C)OC1 [PL35]

HEART/BLOOD ([1]; 2 min): 14.0
HEART/LIVER ([1]; 2 min): 1.82
Heart ([1]; 2 min): 1.87
HEART/BLOOD ([1]; 60 min): 345
HEART/LIVER ([1]; 60 min): 17.1
Heart ([1]; 60 min): 1.77
Structure (SMILES): COCCOCC(COC)(CP(C)C)CP(C)C [PL46]

HEART/BLOOD ([1]; 2 min): 1.13
HEART/LIVER ([1]; 2 min): 0.11
Heart ([1]; 2 min): 0.32
HEART/BLOOD ([1]; 60 min): 131
HEART/LIVER ([1]; 60 min): 0.24
Heart ([1]; 60 min): 0.18
Structure (SMILES): CP(C)CC1(CP(C)C)CCOCC1 [PL49]
